# Columns and labels:
# HIV-1 = conditions: cited from earlier work
# [1] = Plasma pharmacokinetics of ABX464 and ABX464-NGlc in HIV-infected subjects; assay type: in vivo, human
# Method: Plasma samples were analyzed for ABX464 and ABX464-NGlc using validated bioanalytical methods by Atlanbio (Saint Nazaire, France) according to good laboratory practices. Pharmacokinetic parameters were calculated by noncompartmental analysis (NCA), using Phoenix WinNonlin software (Pharsight Corporation) running on a personal computer. On day 1, the following PK parameters were generated: Cmax, the time to Cmax (Tmax), lag time (tlag), elimination rate constant (kel), area under the concentration-time curve (AUC) from time zero to time t (AUC0–t), AUC from time zero to infinity (AUC0–∞), apparent clearance (CL/F), and apparent volume of distribution (V/F). On the other days of PK assessment, only Cmax, Tmax, tlag, kel, and AUC0–t were generated. The secondary analysis concerned pharmacodynamic (PD) activity, as expressed by CD4 and CD8 levels and viral load across time. The HIV viral load was analyzed in the prequalified individual local study center laboratories. CD4 and CD8 cell counts were also determined in the local study center laboratories. With respect to the viral load, changes in the log-transformed viral load values between 24 h postdose and predose were calculated on each day, and a comparison between each dose level and pooled placebo data was made. Moreover, the rate of success (defined as a decrease in the viral load value of at least 0.5 log) was evaluated for each treatment (including placebo) and compared between treatments.
# [2] = tested on: HIV replication in macrophages; design: method as in PMID 25889234; conditions: in vitro; cited from earlier work
# HIV replication in PBMCs = tested on: HIV replication in PBMCs; design: method as in PMID 25889234; conditions: in vitro; cited from earlier work
"half-life (t1/2) ([1]; HIV-infected subjects, oral)","Bioavailability of ABX464-NGlc in human subjects relative to mice ([1]; human, in vivo)",Cmax of the metabolite relative to that of the parent compound ([1]; plasma),SMILES,Decrease in mean total HIV-1 DNA copy number in monocytes (HIV-1; 10 days of treatment) [fold],Reduction in mean total HIV-1 DNA copy number in monocytes (HIV-1; 10 days of treatment) [%],Effect on HIV viral load in plasma or CD4 T cell count (HIV-1),Treated individuals with significant reductions in total HIV-1 DNA levels within monocytes (HIV-1),50% inhibitory concentration in macrophage culture relative to parent drug [2],Inhibition of HIV replication in macrophage culture [2],Antiviral effect on HIV replication in PBMCs (HIV replication in PBMCs)
,,,Cn1cc(-c2cccc3cc(C(=O)N=C(N)N)ccc23)cn1,2.7,63,no significant effect,three of the six,,,
about 100 h,approximately 15 fold,approximately 160 fold,"O=C(O)[C@H]1O[C@@H](N(c2ccc(OC(F)(F)F)cc2)c2ccc3cccc(Cl)c3n2)[C@H](O)[C@@H](O)[C@@H]1O [ABX464-NGlc, ABX464-N-glucuronide]",,,,,same 50% inhibitory concentration as the parent drug,able to inhibit HIV replication,no antiviral effect

# Source: article PMC5487684, “Safety, Pharmacokinetics, and Antiviral Activity of a Novel HIV Antiviral, ABX464, in Treatment-Naive HIV-Infected Subjects in a Phase 2 Randomized, Controlled Study” (Antimicrobial Agents and Chemotherapy, 2017)
